System: not listed separately
Test: Half life in rat was tested
Type: ADME, organism-based
Conditions: in vivo

Q: For `Cc1ccn2cc(-c3ccc(OCCCN4CCCCC4)cc3)nc2c1`, which half-life is on record?
A: 5.2 h

Molecular target: T1, Histamine H3 receptor (Homo sapiens, UniProt Q9Y5N1)
Test: Binding affinity for human histamine H3 receptor
Conditions: not given

T1 sequence (Q9Y5N1 whole entry): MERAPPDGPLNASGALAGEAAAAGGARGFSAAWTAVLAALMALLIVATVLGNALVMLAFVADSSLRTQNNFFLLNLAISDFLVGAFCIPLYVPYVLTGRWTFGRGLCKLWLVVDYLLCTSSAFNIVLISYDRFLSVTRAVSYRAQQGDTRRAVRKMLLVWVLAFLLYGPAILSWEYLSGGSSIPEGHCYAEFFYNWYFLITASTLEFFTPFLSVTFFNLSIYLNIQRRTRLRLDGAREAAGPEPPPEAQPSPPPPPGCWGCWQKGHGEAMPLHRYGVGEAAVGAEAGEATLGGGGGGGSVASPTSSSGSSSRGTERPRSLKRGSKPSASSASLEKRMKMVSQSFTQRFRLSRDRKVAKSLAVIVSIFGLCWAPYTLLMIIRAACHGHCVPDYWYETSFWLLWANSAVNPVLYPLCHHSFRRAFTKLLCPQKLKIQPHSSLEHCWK

Q: With `c1ccn2cc(-c3ccc(OCCCN4CCCCC4)cc3)nc2c1` as the molecule, how does the Ki read?
A: 6 nM

Q: For `Cc1ccn2cc(-c3ccc(OCCCN4CCCCC4)cc3C)nc2c1`, which Ki is on record?
A: 2 nM

Q: Which Ki does the source give for `CCCCN(CCCC)CCCOc1ccc(-c2nc3c(C)cccn3c2C)cc1` here?
A: 870 nM

Q: Which Ki does the source give for `CCCN(CCC)CCCOc1ccc(-c2cn3cccc(C)c3n2)cc1` here?
A: 43 nM

Q: For `Cc1cccn2cc(-c3ccc(NS(=O)(=O)CCCN4CCCCC4)cc3)nc12`, which Ki is on record?
A: 500 nM

Q: Which Ki does the source give for `Cc1cccn2cc(-c3ccc(OCCCN(C(C)c4ccccc4)C(C)c4ccccc4)cc3)nc12` (configuration not stated) here?
A: 4000 nM

Q: For `Cc1cccn2cc(-c3ccc(OCCCn4ccnc4)cc3)nc12`, which Ki is on record?
A: 1000 nM

Q: For `Cc1cccn2cc(-c3ccc(OCCCN(C)C)cc3)nc12`, which Ki is on record?
A: 13 nM

Q: For `Cc1ccn2cc(-c3ccc(C#CCCN4CCCCC4)cc3)nc2c1`, which Ki is on record?
A: 7 nM

Q: With `Cc1ccn2cc(-c3ccc(OCCCN4CCCCCC4)cc3)nc2c1` as the molecule, how does the Ki read?
A: 6 nM

Q: With `COc1cc(-c2cn3ccc(C)cc3n2)ccc1OCCCN1CCCCC1` as the molecule, how does the Ki read?
A: 69 nM

Q: Which Ki does the source give for `Cc1ccn2cc(-c3ccc(OCCCN4CCCC4)cc3)nc2c1` here?
A: 5 nM

Q: With `Cc1ccn2cc(-c3ccc(/C=C/CCN4CCCCC4)cc3)nc2c1` as the molecule, how does the Ki read?
A: 22 nM

Q: Which Ki does the source give for `Cc1cccn2cc(-c3ccc(NC(=O)CCN4CCCCC4)cc3)nc12` here?
A: 300 nM

Q: Which Ki does the source give for `Cc1cccn2cc(-c3ccc(OCCCN4CCCCC4)cc3)nc12` here?
A: 3 nM

Q: With `CCCCN(CCCC)CCCOc1ccc(-c2cn3cccc([N+](=O)[O-])c3n2)cc1` as the molecule, how does the Ki read?
A: 11000 nM

Q: Which Ki does the source give for `Cc1cccn2cc(-c3ccc(NCCCN4CCCCC4)cc3)nc12` here?
A: 15 nM

Q: With `Cc1cc(-c2cn3ccccc3n2)ccc1OCCCN1CCCCC1` as the molecule, how does the Ki read?
A: 28 nM

Q: For `Cc1cccn2cc(-c3ccc(OCCCN4CCOCC4)cc3)nc12`, which Ki is on record?
A: 80 nM

Q: With `Cc1ccn2cc(-c3ccc(CCCCN4CCCCC4)cc3)nc2c1` as the molecule, how does the Ki read?
A: 17 nM

System: not listed separately
Test: Oral bioavailability in rat
Type: ADME, organism-based
Conditions: in vivo, read-out: Bioavailabiility

Q: With `Cc1ccn2cc(-c3ccc(OCCCN4CCCCC4)cc3)nc2c1` as the molecule, how does the bioavailability read?
A: 57%

Molecular target: T2, Histamine H3 receptor (Rattus norvegicus, UniProt Q9QYN8)
T2 sequence (Q9QYN8 whole entry): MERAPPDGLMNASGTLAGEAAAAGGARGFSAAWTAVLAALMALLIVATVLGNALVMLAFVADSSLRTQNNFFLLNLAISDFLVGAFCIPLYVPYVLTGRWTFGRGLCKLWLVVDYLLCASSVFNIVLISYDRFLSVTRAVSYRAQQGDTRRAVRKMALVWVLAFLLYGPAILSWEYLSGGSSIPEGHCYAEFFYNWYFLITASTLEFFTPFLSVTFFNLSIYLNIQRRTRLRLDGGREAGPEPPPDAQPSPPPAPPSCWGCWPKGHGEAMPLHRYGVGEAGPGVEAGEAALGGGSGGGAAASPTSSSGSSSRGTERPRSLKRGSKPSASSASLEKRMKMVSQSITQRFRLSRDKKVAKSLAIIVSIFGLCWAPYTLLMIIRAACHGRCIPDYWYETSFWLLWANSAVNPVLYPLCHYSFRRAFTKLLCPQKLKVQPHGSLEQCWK
Test: Compound was tested for its binding affinity for rat histamine H3 receptor
Conditions: not given

Q: With `Cc1ccn2cc(-c3ccc(OCCCN4CCCCC4)cc3)nc2c1` as the molecule, how does the Ki read?
A: 10 nM

Molecular target: Histamine H3 receptor (Rattus norvegicus) (UniProt Q9QYN8)
Sequence (Q9QYN8 whole entry): as above
Test: Ex-vivo effective dose required for rat histamine H3 receptor occupancy by the compound using [3H]R-alpha-methylhistamine upon subcutaneous administration
Conditions: not given

Q: For `S=C(NC1CCCCC1)N1CCC(c2cnc[nH]2)CC1`, which ED50 is on record?
A: 2 mg/kg

Q: Which ED50 does the source give for `Cc1ccn2cc(-c3ccc(OCCCN4CCCCC4)cc3)nc2c1` here?
A: 0.2 mg/kg

Molecular target: T2, Histamine H3 receptor
Test: Antagonist activity for rat histamine H3 receptor was determined
Type: functional
Conditions: read-out: pA2 (converted)

Q: With `Cc1ccn2cc(-c3ccc(OCCCN4CCCCC4)cc3)nc2c1` as the molecule, how does the Kb read?
A: 4.68 nM

Molecular target: T1, Histamine H3 receptor
Test: Compound was tested for its binding affinity against human histamine H3 receptor
Conditions: not given

Q: For `CCCCN(CCCC)CCCOc1ccc(-c2cn3cccc(C)c3n2)cc1`, which Ki is on record?
A: 4000 nM

— ChEMBL document CHEMBL1134971, “Novel human histamine H(3) receptor antagonists” (Bioorg Med Chem Lett, 2002)
